Laboratory results reported in patent US11339130B1 (Blade Therapeutics, Inc., priority 2016, dated 2022).
Where two headings read alike, the source gives them in different places.

Key:
[1] = target: T1, Human Calpain 1/NS1 (Homo sapiens, UniProt P07384); test: Calpain inhibition continuous fluorescence (FRET) assay, Human Calpain 1/NS1; type: biochemical; settings: read-out: Human Calpain 1/NS1 IC50
T1 sequence (P07384 1-714): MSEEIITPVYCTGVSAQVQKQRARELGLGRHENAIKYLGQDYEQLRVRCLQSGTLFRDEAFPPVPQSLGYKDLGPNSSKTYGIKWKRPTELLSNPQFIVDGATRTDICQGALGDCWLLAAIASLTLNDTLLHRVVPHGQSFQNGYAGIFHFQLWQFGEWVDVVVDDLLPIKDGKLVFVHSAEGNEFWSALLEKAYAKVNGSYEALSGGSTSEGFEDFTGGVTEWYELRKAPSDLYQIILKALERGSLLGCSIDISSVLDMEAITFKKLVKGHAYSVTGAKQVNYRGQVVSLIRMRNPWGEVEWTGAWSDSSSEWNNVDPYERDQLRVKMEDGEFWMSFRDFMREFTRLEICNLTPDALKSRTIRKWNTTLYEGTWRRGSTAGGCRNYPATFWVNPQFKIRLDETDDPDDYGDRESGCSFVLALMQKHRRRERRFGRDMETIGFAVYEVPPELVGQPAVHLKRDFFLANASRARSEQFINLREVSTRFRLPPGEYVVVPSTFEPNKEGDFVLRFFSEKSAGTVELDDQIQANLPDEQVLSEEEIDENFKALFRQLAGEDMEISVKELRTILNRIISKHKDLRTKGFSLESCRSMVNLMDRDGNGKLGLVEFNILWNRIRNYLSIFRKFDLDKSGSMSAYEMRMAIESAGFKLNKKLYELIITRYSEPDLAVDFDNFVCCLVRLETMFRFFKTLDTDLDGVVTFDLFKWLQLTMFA
T1 sequence (P04632 1-268 partner): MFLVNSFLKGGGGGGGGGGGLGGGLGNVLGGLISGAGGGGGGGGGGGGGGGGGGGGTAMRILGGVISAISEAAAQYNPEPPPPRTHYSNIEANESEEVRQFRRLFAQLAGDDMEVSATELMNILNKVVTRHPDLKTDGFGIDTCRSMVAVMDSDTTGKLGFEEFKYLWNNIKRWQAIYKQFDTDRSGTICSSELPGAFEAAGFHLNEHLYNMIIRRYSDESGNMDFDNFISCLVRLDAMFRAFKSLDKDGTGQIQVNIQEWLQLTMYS
How it was run: (§1)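 Continuous FRET read (ex 490/em 520 nm, 10 min) of calpain 1, 2 or 9 cleaving an internally quenched 5-FAM peptide, triggered by substrate with CaCl2 after enzyme–inhibitor incubation at ambient 25 °C, pH 7.5 Tris/NaCl/DTT buffer. IC50 from initial rates (1-5 min) via 4-parameter fit.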

[2] = test system: Calpain activity in SH-SY5Y cells; test: SH-SY5Y + AMC fluorescence assay (Suc-LLVY-AMC substrate); type: cell-based; settings: read-out: SH-SY5Y + AMC IC50
[3] = target: T2, Human Calpain 2/NS1 (Homo sapiens, UniProt P17655); test: Calpain inhibition continuous fluorescence (FRET) assay, Human Calpain 2/NS1; type: biochemical; settings: read-out: Human Calpain 2/NS1 IC50
T2 sequence (P17655 1-700): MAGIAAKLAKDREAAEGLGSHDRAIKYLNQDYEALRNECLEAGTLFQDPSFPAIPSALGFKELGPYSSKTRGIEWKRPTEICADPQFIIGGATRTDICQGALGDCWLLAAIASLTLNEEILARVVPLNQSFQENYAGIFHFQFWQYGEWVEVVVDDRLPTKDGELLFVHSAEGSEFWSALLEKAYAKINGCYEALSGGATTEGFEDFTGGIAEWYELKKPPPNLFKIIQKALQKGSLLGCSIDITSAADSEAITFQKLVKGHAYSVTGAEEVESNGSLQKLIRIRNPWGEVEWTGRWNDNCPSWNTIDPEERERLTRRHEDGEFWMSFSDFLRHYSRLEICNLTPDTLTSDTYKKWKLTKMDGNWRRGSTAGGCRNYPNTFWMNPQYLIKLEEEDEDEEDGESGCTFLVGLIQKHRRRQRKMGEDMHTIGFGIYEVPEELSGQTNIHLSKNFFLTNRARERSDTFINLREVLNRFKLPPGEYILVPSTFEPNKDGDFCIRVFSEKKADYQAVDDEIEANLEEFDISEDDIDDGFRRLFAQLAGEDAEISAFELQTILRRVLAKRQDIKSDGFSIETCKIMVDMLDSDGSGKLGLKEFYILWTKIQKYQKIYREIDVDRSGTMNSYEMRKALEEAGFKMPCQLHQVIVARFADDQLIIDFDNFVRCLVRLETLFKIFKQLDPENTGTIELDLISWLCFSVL
T2 sequence (P04632 1-268 partner): T1 sequence (P04632 1-268 partner)
How it was run: as §1

[4] = test system: Calpain activity in SH-SY5Y cells (SBDP-150); test: SH-SY5Y Spectrin western blot assay (SBDP-150 breakdown product, A23187-induced); type: cell-based; settings: SH-SY5Y cells, read-out: SH-SY5Y Spectrin IC50
[5] = target: T3, Human Calpain 9/NS1 (Homo sapiens, UniProt O14815); test: Calpain inhibition continuous fluorescence (FRET) assay, Human Calpain 9/NS1; type: biochemical; settings: read-out: Human Calpain 9/NS1 IC50
T3 sequence (O14815 1-690): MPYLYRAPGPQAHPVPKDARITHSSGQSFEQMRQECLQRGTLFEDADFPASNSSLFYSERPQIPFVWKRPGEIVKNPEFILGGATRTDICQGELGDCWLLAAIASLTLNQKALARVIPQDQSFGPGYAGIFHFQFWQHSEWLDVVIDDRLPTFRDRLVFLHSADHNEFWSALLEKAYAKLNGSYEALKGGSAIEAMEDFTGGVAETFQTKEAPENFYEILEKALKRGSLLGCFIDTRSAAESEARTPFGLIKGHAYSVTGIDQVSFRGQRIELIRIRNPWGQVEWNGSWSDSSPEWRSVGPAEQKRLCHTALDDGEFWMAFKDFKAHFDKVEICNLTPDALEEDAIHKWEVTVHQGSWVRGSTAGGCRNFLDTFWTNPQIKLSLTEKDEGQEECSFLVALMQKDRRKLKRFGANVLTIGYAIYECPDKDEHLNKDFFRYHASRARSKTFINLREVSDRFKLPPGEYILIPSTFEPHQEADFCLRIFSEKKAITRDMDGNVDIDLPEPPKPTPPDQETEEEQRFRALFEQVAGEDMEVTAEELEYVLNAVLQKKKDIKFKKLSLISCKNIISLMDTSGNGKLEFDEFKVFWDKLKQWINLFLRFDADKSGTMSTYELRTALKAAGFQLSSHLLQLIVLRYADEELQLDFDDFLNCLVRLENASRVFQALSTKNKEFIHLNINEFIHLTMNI
T3 sequence (P04632 1-268 partner): T1 sequence (P04632 1-268 partner)
How it was run: as §1

[6] = A23187-induced SBDP-150, western blot
[7] = Homo sapiens, A23187-induced SBDP-150, western blot
[8] = Homo sapiens, Column D, A23187-induced SBDP-150

Row | Molecule | IC50 [1] [µM] | IC50 [2] [µM] | IC50 [3] [µM] | IC50 [4, 6] [µM] | IC50 [5] [µM] | IC50 [4, 7] [µM] | IC50 ([1]; Column A) [µM] | IC50 ([2]; Column E) [µM] | IC50 ([3]; Column B) [µM] | IC50 [4, 8] [µM] | IC50 ([5]; Column C) [µM]
1 | N-(4-amino-3,4-dioxo-1-phenylbutan-2-yl)-1-(2-cyanopyrimidin-4-yl)-3-methyl-1H-pyrazole-5-carboxamide [Compound 448] | < 3 | < 10 | < 3 | < 10 | < 3 |  |  |  |  |  | 
2 | N-(4-amino-3-hydroxy-4-oxo-1-phenylbutan-2-yl)-4-(4-((benzyloxy)methyl)phenyl)-1,2,5-thiadiazole-3-carboxamide [Compound 369] | < 3 | > 25 | < 3 | < 10 | < 3 |  |  |  |  |  | 
3 | Cn1cc(C(=O)NC(Cc2ccccc2)C(=O)C(N)=O)c(-c2cnc3ccccc3c2)n1 (stereo not drawn) [Compound 605, N-(4-amino-3,4-dioxo-1-phenylbutan-2-yl)-1-methyl-3-(quinolin-3-yl)-1H-pyrazole-4-carboxamide] | < 3 | > 25 | < 3 |  | < 3 | > 25 |  |  |  |  | 
4 | CCOCc1ccc(-n2nc(C)cc2C(=O)N[C@@H](Cc2ccccc2)C(=O)C(N)=O)cc1 [Compound 227, (S)—N-(4-amino-3,4-dioxo-1-phenylbutan-2-yl)-1-(4-(ethoxymethyl)phenyl)-3-methyl-1H-pyrazole-5-carboxamide] |  |  |  |  |  |  | < 3 | > 25 | < 3 | < 10 | < 3
5 | CC[C@H](NC(=O)c1oc(C)nc1-c1ccccc1)C(=O)C(N)=O [Compound 243, (S)—N-(1-amino-1,2-dioxopentan-3-yl)-2-methyl-4-phenyloxazole-5-carboxamide] |  |  |  |  |  |  | < 3 | > 25 | < 3 | 10 to 25 | < 3
6 | NC(=O)C(=O)C(Cc1ccccc1)NC(=O)c1cnoc1-c1ccccc1F (stereo not drawn) [Compound 556, N-(4-amino-3,4-dioxo-1-phenylbutan-2-yl)-5-(2-fluorophenyl)isoxazole-4-carboxamide] | < 3 | < 10 | < 3 |  | < 3 | < 10 |  |  |  |  | 
7 | NC(=O)C(=O)C(Cc1ccccc1)NC(=O)c1nsnc1-c1cccc(F)c1F (stereo not drawn) [Compound 372, N-(4-amino-3,4-dioxo-1-phenylbutan-2-yl)-4-(2,3-difluorophenyl)-1,2,5-thiadiazole-3-carboxamide] | < 3 | < 10 | < 3 |  | < 3 | < 10 |  |  |  |  | 
8 | Cc1cc(C(=O)N[C@@H](Cc2ccccc2)C(=O)C(N)=O)n(-c2ccc(C#N)cn2)n1 [Compound 208] |  |  |  |  |  |  | < 3 | > 25 | < 3 | < 10 | < 3
9 | Cc1nc(-c2cnc3ccccc3n2)c(C(=O)NC(Cc2ccccc2)C(=O)C(N)=O)o1 (stereo not drawn) [Compound 356, N-(4-amino-3,4-dioxo-1-phenylbutan-2-yl)-2-methyl-4-(quinoxalin-2-yl)oxazole-5-carboxamide] | < 3 | > 25 | < 3 |  | < 3 | > 25 |  |  |  |  | 
10 | CCn1cc(C(=O)N[C@@H](Cc2ccccc2)C(=O)C(N)=O)c(-c2ccccc2)n1 [Compound 239, (S)—N-(4-amino-3,4-dioxo-1-phenylbutan-2-yl)-1-ethyl-3-phenyl-1H-pyrazole-4-carboxamide] |  |  |  |  |  |  | < 3 | < 10 | < 3 | 10 to 25 | < 3
11 | Cc1cc(C(=O)N[C@H](C=O)Cc2ccccc2)n(-c2ccncn2)n1 [Compound 279, (S)-3-methyl-N-(1-oxo-3-phenylpropan-2-yl)-1-(pyrimidin-4-yl)-1H-pyrazole-5-carboxamide] |  |  |  |  |  |  | < 3 | < 10 | < 3 | 10 to 25 | 3 to 10
12 | Cn1cc(C(=O)N[C@@H](Cc2ccccc2)C(=O)C(N)=O)c(-c2ccccc2F)n1 [Compound 181, (S)—N-(4-amino-3,4-dioxo-1-phenylbutan-2-yl)-3-(2-fluorophenyl)-1-methyl-1H-pyrazole-4-carboxamide] |  |  |  |  |  |  | < 3 | < 10 | < 3 | < 10 | < 3
13 | Cn1nc(Cl)c(C(=O)NC(Cc2ccccc2)C(=O)C(N)=O)c1Cl (stereo not drawn) [Compound 282, N-(4-amino-3,4-dioxo-1-phenylbutan-2-yl)-3,5-dichloro-1-methyl-1H-pyrazole-4-carboxamide] |  |  |  |  |  |  | < 3 | < 10 | < 3 | 10 to 25 | < 3
14 | N#Cc1ccc(-c2nn(C3CC3)cc2C(=O)NC(Cc2ccccc2)C(=O)C(N)=O)cn1 (stereo not drawn) [Compound 413, N-(4-amino-3,4-dioxo-1-phenylbutan-2-yl)-3-(6-cyanopyridin-3-yl)-1-cyclopropyl-1H-pyrazole-4-carboxamide] | < 3 | > 25 | < 3 |  | < 3 | > 25 |  |  |  |  | 
15 | Cn1cc(C(=O)N[C@@H](Cc2ccccc2)C(=O)C(N)=O)c(-c2cncnc2)n1 [Compound 173, (S)—N-(4-amino-3,4-dioxo-1-phenylbutan-2-yl)-1-methyl-3-(pyrimidin-5-yl)-1H-pyrazole-4-carboxamide] |  |  |  |  |  |  | < 3 | > 25 | < 3 | > 25 | < 3
